# Experimental data published in patent US7179954B1, “Isolated nucleic acids coding for a nuclear base transporter and uses thereof” (Carnegie Insitution of Washington, priority 1999, dated 2007).
# Experiments:
# PUP1 [1] = target: T1, PUP1 (Arabidopsis thaliana, UniProt Q9FZ96, S63G); assay: Growth of yeast strain DM734-284D on adenosine minimal medium (adenosine transport complementation); format: cell-based; design: PUP1 was expressed under control of the yeast ATPase promoter PMA1 in the vector pDR195; expressed in transfected cells; host or cells: Saccharomyces cerevisiae MG887ura3- (A5, A8) or DM734-284D (A7), construct pDR195PUP1; settings: minimal medium with 150 μM adenosine instead of adenine; after 3 days
# From the text: The Saccharomyces cerevisiae strain DM734-284D (genotype: ade8-18, ade2-1, arg-4-16, leu2-17, trp1-1, lys2, ura3: Yeast Genetic Stock Center) was used for growth studies. This yeast strain owing to mutations at the gene loci ade 8-18 and ade 2-1 is not itself in a position to synthesize adenine. […] This adenine is taken up via the purine/cytosine transporter FCY2 of the yeast. The DM734-284D strain is however still in a position to grow in medium containing adenosine instead of adenine, provided adenosine transport in the yeast cells is mediated by an adenosine transporter inserted by genetic engineering.
# In order to check whether PUP1 mediates the transport of adenosine, the strain DM734-284D was transformed according to the standard procedure for yeast transformation (Dohmen et al., 1991, Yeast 7,691–692) with the constructs pDR195PUP1 and pDR195 as controls (Rentsch et al., 1995, FEBS Lett. 370, […]). For final checking of the transformation the early stages of transformation were plated on minimal medium containing 150 μM adenine and the amino acids arginine, leucine, tryptophane (each 60 mg/l) and lysine (70 mg/l) necessary for growth. Uracil served as transformation marker. Three independent positive clones of the control and the PUP1-expressing clone were plated on minimal medium containing 150 μM adenosine instead of 150 μM adenine.
# [2] = target: T2, PUP1 nuclear base transporter (Arabidopsis thaliana, UniProt Q9FZ96, S63G); assay: Influence of inhibitors on PUP1-mediated adenine or cytosine uptake in yeast strain MG887ura3-::pFL61-PUP1; format: cell-based; settings: for Relative adenine uptake / Relative cytosine uptake: added five minutes before measurement, without inhibitor = 100; for Effect on PUP1-mediated adenine or cytosine uptake: statement in words
# T2 construct: The PUP1 protein expressed by the yeast strain MG887ura3^−::pFL61-PUP1; expressed in transfected cells; host or cells: Saccharomyces cerevisiae MG887ura3- (fcy2), plasmid pFL61-PUP1
# Method: (§1) For measuring the rate of uptake the yeast strains MG887ura3^−::pFL61, MG887ura3^−::pFL61-PUP1 and their original strain Σ1278b (Dubois & Grenson, 1979, Mol. Gen. Genet. 175, 67–76) were cultured in complete medium (YPD) without uracil and with 2% glucose as carbon source up to an OD600 of 0.6 at 28° C. The cells were harvested at 3000 g, washed twice with water and brought to an OD600 of 12 with sodium phosphate buffer (100 mM, pH 4.5), 1% glucose. The cell suspension was stored in 100 μl portions on ice up to the beginning of the uptake measurements. Before the start of the uptake measurements the cells were pre-incubated at 30° C. for 2 minutes. The reaction was then started, by which 100 μl of radioactively labelled substrate solution was added to 100 μl cell suspension. The reaction mixture was incubated at 30° C. and after 30, 60, 120 and 180 seconds in each case 50 μl of suspension was withdrawn and placed in 4 ml of ice-cold water (in measurements over 180 seconds more cell suspension and substrate solution were correspondingly added). The cells were absorbed on to glass fibre filters and washed with 4 ml of ice-cold water. The radioactivity on the filters was finally ascertained in a liquid scintillation counter.
# (§2) Substrate solution: For the substrate solution what is concerned is a 100 mM sodium phosphate buffer pH 4.5 with 1% glucose and 9.25 Bq/μl of radioactively labelled substrate (25–100 μM [^14C] adenine or [^14C] cytosine). In addition the substrate solution contains the unlabelled substrate, possible inhibitors and competitors in double end-concentration. For estimation of the optimum pH the pH value of the sodium phosphate buffer is also changed. When the influence of glucose on the uptake rate is measured neither the cell suspension nor the substrate solution contains glucose. Glucose is only added after starting the uptake measurements at the commencement of measuring at an end-concentration of 1%.
# The influence of various inhibitors on the adenine or cytosine uptake mediated by the PUP1 nuclear base transporter in the yeast strain MG887ura3^−::pFL61-PUP1 is indicated in Table 2. The inhibitors were added to the cells five minutes before beginning the measurements. […] This may be taken as a clear indication of a secondarily active proton-associated uptake mechanism.
# [3] = target: T3, PUP1 nuclear base transporter (Arabidopsis thaliana, UniProt Q9FZ96); assay: Uptake of radioactively labelled adenine and cytosine by yeast strain MG887ura3-::pFL61-PUP1; format: cell-based; settings: initial concentration medium 200 μM; intracellular, cell volume estimated as four times the dry weight
# T3 construct: The PUP1 protein expressed by the yeast strain MG887ura3^−::pFL61-PUP1; expressed in transfected cells; host or cells: Saccharomyces cerevisiae MG887ura3- (fcy2), plasmid pFL61-PUP1
# Method: as §1, §2
# (§3) In Table 1 the uptake of radioactively labelled adenine and cytosine mediated by the PUP1 nuclear base transporter is indicated by the yeast strain MG887ura3^−::pFL61-PUP1. For calculation of the intracellular concentration the cell volume is estimated as four times the dry weight (Ninnemann et al., 1994, EMBO J. 15, 3464–3471). The uptake occurs against a concentration gradient.
# [4] = target: T2, PUP1 nuclear base transporter; assay: as above; format: cell-based
# Method: as §1, §2, §3
# [5] = target: T2, PUP1 nuclear base transporter; assay: cell-based
# Method: as §1
# [6] = target: T2, PUP1 nuclear base transporter; format: cell-based; settings: for Transport of cytokinin by PUP1: 3H-labelled cytokinins
# Method: The uptake was set temporarily at a concentration of 100 μM trans-zeatin. In this case PUP1 was expressed under control of the yeast ATPase promoter PMA1 in the vector pDR195 (Rentsch et al., 1995, FEBS Left. 370, […]) in the mutant MG877ura3^−::(FCY). The empty vector (FCY2pDR195) served as control.
# as §1
# The uptake experiments were carried out with ^3H-labelled zeatine in MG887ura3^− as for adenine. To start the reaction 87.3Bq/μl of the radioactive substrate was added to a total concentration of 100 μM trans-zeatine.
# PUP1 [7] = target: T1, PUP1; assay: Sensitivity of yeast MG887ura3- clones to caffeine-containing minimal medium; format: cell-based; design: PUP1 was expressed under control of the yeast ATPase promoter PMA1 in the vector pDR195; expressed in transfected cells; host or cells: Saccharomyces cerevisiae MG887ura3- (A5, A8) or DM734-284D (A7), construct pDR195PUP1; settings: minimal medium plates, 6 days at 28° C.
# Method: In order to check whether PUP1 mediates the transport of caffeine, the sensitivity of the Saccharomyces cerevisiae strain MG887ura3^− to caffeine-containing minimal medium was investigated. At certain concentrations caffeine is toxic to yeast (Bard et al., J. Bacteriol. 141, 999–1002), leading to slower growth or death of the yeast.
# For this test various caffeine concentrations between 0 and 1.5% were put into minimal medium. Yeast clones grown in liquid minimal medium for 16 hours were spread out on the corresponding plates and incubated for 6 days at 28° C.
# T2 sequence (Q9FZ96 whole entry S63G): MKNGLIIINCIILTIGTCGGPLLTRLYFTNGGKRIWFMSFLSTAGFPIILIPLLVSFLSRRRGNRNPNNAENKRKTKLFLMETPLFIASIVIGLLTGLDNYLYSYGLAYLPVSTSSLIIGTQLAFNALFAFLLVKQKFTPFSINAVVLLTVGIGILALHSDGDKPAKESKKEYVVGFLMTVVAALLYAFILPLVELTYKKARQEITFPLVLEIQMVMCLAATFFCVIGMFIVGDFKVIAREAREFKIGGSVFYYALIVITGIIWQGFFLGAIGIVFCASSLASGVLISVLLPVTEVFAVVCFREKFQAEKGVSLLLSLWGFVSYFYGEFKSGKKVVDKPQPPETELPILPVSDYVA
# T1 sequence (Q9FZ96 whole entry S63G): as above
# T3 sequence (Q9FZ96 whole entry S63G): as above
compound,measurement,setting,value
Nc1ncnc2c1ncn2[C@@H]1O[C@H](CO)[C@@H](O)[C@H]1O [adenosine],Growth of PUP1-expressing clone,PUP1 [1],Definite growth
same,Growth of clone transformed with the vector pDR195 (control),PUP1 [1],no growth
C[C@@H]1C[C@@H]([C@H](O)CC2CC(=O)NC(=O)C2)C(=O)[C@@H](C)C1 [cycloheximide],Relative adenine uptake,[2]; 10 μg/ml inhibitor,95%
same,Relative cytosine uptake,[2]; 10 μg/ml inhibitor,97%
C(=NC1CCCCC1)=NC1CCCCC1 [DCCD],Relative adenine uptake,[2]; 100 μM inhibitor,47%
same,Relative cytosine uptake,[2]; 100 μM inhibitor,55%
"Nc1cc[nH]c(=O)n1 [Cytosine, cytosine]",End conc Cells,[3],2660 µM
same,Enrichment factor,"[4]; cells versus medium, initial concentration medium 200 μM",18
same,End conc. Medium,"[4]; initial concentration medium 200 μM, yeast strain MG887ura3-::pFL61-PUP1",145 µM
same,pH dependence of PUP1-mediated uptake,"[4]; yeast strain MG887ura3-::pFL61-PUP1, FIG. 2, substrate 100 μM",dependent on the pH level
same,Glucose dependence of PUP1-mediated uptake,"[4]; yeast strain MG887ura3-::pFL61-PUP1, FIG. 3, glucose 1%",glucose-dependent
CC/C(=C(/CC)c1ccc(O)cc1)c1ccc(O)cc1 [diethylstilboestrol],Relative adenine uptake,[2]; 100 μM inhibitor,4%
same,Relative cytosine uptake,[2]; 100 μM inhibitor,8%
same,Effect on PUP1-mediated adenine or cytosine uptake,[2],block the uptake
C/C(=C\CNc1ncnc2[nH]cnc12)CO [zeatin],Ki,[5],30 µM
same,"Increased uptake of radioactively labelled trans-zeatine, PUP1-expressing clone versus control strain (pDR195)","[6]; 100 μM trans-zeatine, three independent experiments",70 times
same,Transport of cytokinin by PUP1,[6],can also transport cytokinins
Cn1c(=O)c2c(ncn2C)n(C)c1=O [caffeine],Caffeine concentration from which PUP1-expressing yeasts displayed distinctly slowed-down growth compared to control and PUP2-expressing strain,PUP1 [7],≥ 0.2%
"O=[N+]([O-])c1ccc(O)c([N+](=O)[O-])c1 [2,4-DNP, 2,4-dinitrophenol]",Relative adenine uptake,[2]; 100 μM inhibitor,54%
same,Relative cytosine uptake,[2]; 100 μM inhibitor,58%
same,Effect on PUP1-mediated adenine or cytosine uptake,[2],block the uptake
c1coc(CNc2ncnc3[nH]cnc23)c1 [kinetin],Ki,[5],35 µM
"N#CC(C#N)=NNc1cccc(Cl)c1 [CCCP, carbonyl-cyanide-m-chlorphenylhydrazone]",Relative adenine uptake,[2]; 100 μM inhibitor,13%
same,Relative cytosine uptake,[2]; 100 μM inhibitor,20%
same,Effect on PUP1-mediated adenine or cytosine uptake,[2],block the uptake
2-isopentenyl adenine,Transport of cytokinin by PUP1,[6],can also transport cytokinins
